Measured values as given in PMC11407620, “Repurposing auranofin and meclofenamic acid as energy-metabolism inhibitors and anti-cancer drugs” (PLOS ONE, 2024).

Experiments:
HeLa cells = experiment: Cell invasiveness, Boyden chamber; type: cell-based; conditions: Homo sapiens, MA 10 μM, 24 h
Protocol: The 96-multiwell Boyden chambers (Merck Millipore, MA, USA) assay was performed for cellular invasiveness detection. Cancer cells (5 × 10^4 cells/well) were re-suspended in free-serum DMEM and placed in the upper Boyden chamber compartment. Free-serum DMEM was also placed in the lower compartment of the chamber. Afterwards, the Boyden chamber was placed at 37°C and 95% air/5% CO2 for 24 h. Invasive cancer cells within the lower chamber compartment were detected by using the calcein-AM (60 nM, 1 h) assay at 37°C. Calcein-fluorescence was measured at λexcitation = 485 nm and λemission = 520 nm in a Nunclon microplate reader (Roskilde, Denmark).
S1 Figure. Cancer invasiveness assay in metastatic cancer cells exposed to MA (A) and perhexiline (B) for 24 h. All cancer cell invasiveness was compared with MDA-MB-231 cells, which are cancer cells with the highest invasiveness ability. n=3; *P < 0.05 vs. MDA-MB-231 non-treated cells.

[1] = test system: ovarian cancer A2780 cells; parameters: method as in PMID 35358852; conditions: cited from earlier work

Cc1ccc(Cl)c(Nc2ccccc2C(=O)O)c1Cl [MA, Meclofenamic acid]
inhibition at 10 µM (HeLa cells): 65%

CC(=O)OC[C@H]1O[C@@H]([S-])[C@H](OC(C)=O)[C@@H](OC(C)=O)[C@@H]1OC(C)=O.CCP(CC)CC.[Au+] [Aur, [1-(thio-κS)-β-D-glucopyranose-2,3,4,6-tetraacetyl] (triethylphosphine)-gold]
inhibition of cancer cell total oxygen consumption [1]: around 25%
